# Measurements taken from US20080171768A1, “Pharmaceutical Composition Containing An Anti Parasitic Agent And Active Ingredient Selected From Carveol, Thymol, Eugenol, Borneol, Carvacrol, Alpha-Ionone, Or Beta-Ionone” (ADVANCED SCIENTIFIC DEVELOPMENTS, priority 2005, published 2008).
# Like-named read-outs stand apart in the source and are kept apart here.
# How the values were obtained:
# [1] = test system: Plasmodium falciparum clones 3d7, HB3, Dd2 and 7G8; test: In vitro IC50, growth of Plasmodium falciparum clones on human red blood cells (SybrGreen DNA fluorescence); format: cell-based
# Method: The experiment was carried out with four clones (named 3d7, HB3, Dd2 and 7G8) of the malarial agent Plasmodium falciparum, a parasitic disease also known as malaria. These clones are laboratory reference models commonly used to screen drugs for antimalarial activity.
# Plasmodium falciparum was grown on human red blood cells. The test was carried out in 96-well plates in which infected red blood cells (synchronized with sorbitol) were contacted with the different treatments for 72 hours at 37° C. in an incubator with controlled atmosphere (5% CO2, 1% O2, 94% N2). Growth of the pathogen was measured by quantifying fluorescent DNA in the presence of SybrGreen.
# An antiparasitic pharmaceutical composition according to the invention was prepared by mixing artesunate at different concentrations with carvacrol or eugenol at sub-inhibitory concentrations of 0.05 mM and 0.2 mM, respectively. […] This pharmaceutical composition according to the invention was named artesunate P eugenol or artesunate P carvacrol, the letter P signifying potentiation by eugenol or carvacrol.
# In each case, antiparasitic activity was determined either with artesunate alone, or with carvacrol alone, or with eugenol alone, or with the composition of the invention.
# The IC50 was determined with Harald Noedl's HN NonLin V1.051 Beta software based on the fluorescence values.
# The experiment was carried out with the same Plasmodium falciparum clones as in example 2 (3d7, HB3, Dd2 and 7G8), the first two clones (3d7 and HB3) being susceptible and the other two (Dd2 and 7G8) being resistant to chloroquine.
# Chloroquine, one of the most widely used antiparasitic agents, is tested. […] This pharmaceutical composition was named chloroquine P eugenol, the letter P signifying potentiation by eugenol.
# In each case, antiparasitic activity was determined either with chloroquine alone, or with eugenol alone, or with the composition of the invention.
# The IC50 was determined as in example 2.
# The experiment was carried out with the same Plasmodium falciparum clones as in examples 2 and 3 (3d7, HB3, Dd2 and 7G8), the first two clones (3d7 and HB3) being susceptible and the other two (Dd2 and 7G8) being resistant to […].
# Mefloquine, one of the most widely used antiparasitic agents, is tested. […] This pharmaceutical composition according to the invention was named mefloquine P eugenol, the letter P signifying potentiation by eugenol.
# In each case, antiparasitic activity was determined either with mefloquine alone, or with eugenol alone, or with the composition of the invention.
# The IC50 was determined as in examples 2 and 3.
# [2] = test system: Plasmodium berghei ANKA; test: Cerebral malaria model, CBA/J mice infected with Plasmodium berghei ANKA (in vivo)
# Source text: Here, the intrinsic antimalarial activity of carvacrol as well as artesunate potentiated by carvacrol was studied in vivo in an animal model of cerebral malaria (neuromalaria). The reference model for this type of infection makes use of CBA/J mice infected with Plasmodium berghei ANKA, an agent that causes cerebral malaria.
# The intraperitoneal route was used for infection and treatment of the mice.
# In this model, the onset of the first clinical signs occurs by day 4 or 5 (D4 or D5) after infection. Animals presenting these signs die in the next two days (D6 and D7).
# The test was carried out on five groups of 10 mice as follows:
# Group 1: Uninfected, untreated controls
# Group 2: Infected mice treated with carvacrol (60 mg/kg of weight) twice a day every 12 hours
# Group 3: Infected mice treated with carvacrol (40 mg/kg of weight) twice a day every 12 hours
# Group 4: Infected mice treated with artesunate (40 mg/kg of weight) once a day
# Group 5: Infected mice treated with artesunate (40 mg/kg of weight) once a day and with carvacrol (40 mg/kg of weight) twice a day.
# Treatment commenced five days after infection (D5) and continued for three days (D5, D6, D7).
# [3] = test system: Eimeria acervulina and Eimeria tenella; test: Treatment of subclinical coccidiosis in broiler chickens (in vivo); parameters: species or system Eimeria acervulina and Eimeria tenella (in chickens); settings: infected chickens, 5 days treatment in feed (salinomycin 40 mg/kg feed, carvacrol or thymol 75 mg/kg feed); for Weight gain (grams ± SD) Day 5: day 5, immediately after stopping treatment; for Weight gain (grams ± SD) Day 15: day 15, 10 days after stopping treatment
# Method: These in vivo tests were designed to measure weight gain, consumption index, daily oocyst output and appearance of fecal matter in treated chickens.
# The experiment was carried out on 200 chickens aged 22 days (average weight 620 g) afflicted with subclinical coccidiosis sampled from a group of 10,000 broiler chickens.
# Subclinical coccidiosis was diagnosed on day 20. The mean oocyst output in the experimental animals was 50,000 oocysts/g (OPG).
# The antiparasitic agent used is salinomycin, one of the most widely used antiparasitics for this type of infection. Two antiparasitic pharmaceutical compositions according to the invention were prepared by mixing salinomycin at different concentrations with carvacrol or thymol at a sub-inhibitory concentration of 75 mg/kg of feed.
# Antiparasitic activity was also determined either with salinomycin alone, or with carvacrol alone or thymol alone. Antiparasitic activity was measured according to the conventional criteria for this type of infection: weight gain, consumption index, daily oocyst output and appearance of fecal matter. These criteria were measured on day 5 (immediately after stopping treatment) and on day 15 (10 days after stopping treatment).
# The sample was subdivided into seven groups of […]:
# Group 1: Uninfected, untreated animals (healthy controls). Mean weight on day 22: 750 g.
# Group 2: Infected, untreated animals (affection controls).
# Group 3: Infected animals treated with salinomycin at a dose of 40 mg/kg of feed. Group 4: Infected animals treated with carvacrol 75 mg/kg of feed.
# Group 5: Infected animals treated with thymol 75 mg/kg of feed.
# Group 6: Infected animals treated with salinomycin 40 mg/kg of feed potentiated by carvacrol 75 mg/kg of feed.
# Group 7: Infected animals treated with salinomycin 40 mg/kg of feed potentiated by thymol 75 mg/kg of feed.
# The antiparasitic agents used were mixed with this feed during the five days of treatment. The animals had free access to the feed throughout the experiment.
# [4] = artesunate 40 mg/kg once a day, intraperitoneal, D5-D7
# [5] = carvacrol 40 mg/kg twice a day (80 mg/kg/24 h), intraperitoneal, D5-D7
# [6] = carvacrol 60 mg/kg twice a day (120 mg/kg/24 h), intraperitoneal, D5-D7
smiles,measurement,setting,value
C[C@H]1[C@H](OC(=O)CCC(=O)O)O[C@@H]2O[C@@]3(C)CC[C@H]4[C@H](C)CC[C@@H]1[C@@]24OO3 [artesunate],IC50,"[1]; Plasmodium falciparum, Erythrocyte, 72 h, read-out: IC50 artesunate alone, Clone 3d7",0.00214 µM
same,IC50,"[1]; Plasmodium falciparum, Erythrocyte, 72 h, read-out: IC50 artesunate alone, Clone 7G8",0.001 µM
same,IC50,"[1]; Plasmodium falciparum, Erythrocyte, 72 h, read-out: IC50 artesunate alone, Clone Dd2",0.00266 µM
same,IC50,"[1]; Plasmodium falciparum, Erythrocyte, 72 h, read-out: IC50 artesunate alone, Clone HB3",0.00228 µM
same,IC50,"[1]; read-out: IC50 artesunate alone, Clone 7G8, 72 hours",0.00125 µM
same,% mortality,[2]; [4],100%
same,Survival time of animals that died,[2]; [4],7 days
same,protection of treated animals (in words),[2]; artesunate alone 40 mg/kg/24 h,does not provide any protection
CCN(CC)CCCC(C)Nc1ccnc2cc(Cl)ccc12 (stereo not drawn) [chloroquine],IC50,"[1]; Plasmodium falciparum, Erythrocyte, 72 h, read-out: IC50 chloroquine alone, Clone 3d7 (susceptible to chloroquine)",0.0223 µM
same,IC50,"[1]; Plasmodium falciparum, Erythrocyte, 72 h, read-out: IC50 chloroquine alone, Clone 7G8 (resistant to chloroquine)",0.445 µM
same,IC50,"[1]; Plasmodium falciparum, Erythrocyte, 72 h, read-out: IC50 chloroquine alone, Clone Dd2 (resistant to chloroquine)",0.494 µM
same,IC50,"[1]; Plasmodium falciparum, Erythrocyte, 72 h, read-out: IC50 chloroquine alone, Clone HB3 (susceptible to chloroquine)",0.0371 µM
"CC[C@@H](C(=O)[C@@H](C)[C@@H](O)[C@H](C)[C@@H]1O[C@@H]([C@@H](CC)C(=O)O)CC[C@@H]1C)[C@H]1O[C@]2(C=C[C@@H](O)[C@]3(CC[C@@](C)([C@H]4CC[C@](O)(CC)[C@H](C)O4)O3)O2)[C@H](C)C[C@@H]1C [Salinomycin, salinomycin, reference compound]",Consumption index Day 5,[3],2.2
same,Fecal appearance Day 5,[3],Diarrheal
same,Oocyst output (OPG ± SD) Day 5,[3],"110,000 ± 6700 OPG"
same,Weight gain (grams ± SD) Day 5,[3],182 ± 28 grams
same,Consumption index Day 15,[3],2.9
same,Fecal appearance Day 15,[3],Diarrheal
same,Oocyst output (OPG ± SD) Day 15,[3],"164,000 ± 7200 OPG"
same,Weight gain (grams ± SD) Day 15,[3],835 ± 44 grams
OC(c1cc(C(F)(F)F)nc2c(C(F)(F)F)cccc12)C1CCCCN1 (stereo not drawn) [mefloquine],IC50,"[1]; Plasmodium falciparum, Erythrocyte, 72 h, Clone 3d7 (susceptible to mefloquine), read-out: IC50 mefloquine alone",0.00883 µM
same,IC50,"[1]; Plasmodium falciparum, Erythrocyte, 72 h, Clone 7G8 (resistant to mefloquine), read-out: IC50 mefloquine alone",0.0153 µM
same,IC50,"[1]; Plasmodium falciparum, Erythrocyte, 72 h, Clone Dd2 (resistant to mefloquine), read-out: IC50 mefloquine alone",0.0338 µM
same,IC50,"[1]; Plasmodium falciparum, Erythrocyte, 72 h, Clone HB3 (susceptible to mefloquine), read-out: IC50 mefloquine alone",0.00896 µM
Cc1ccc(C(C)C)cc1O [carvacrol],Consumption index Day 5,[3],2.4
same,Fecal appearance Day 5,[3],Diarrheal
same,Oocyst output (OPG ± SD) Day 5,[3],"105,000 ± 5900 OPG"
same,Weight gain (grams ± SD) Day 5,[3],176 ± 32 grams
same,Consumption index Day 15,[3],3
same,Fecal appearance Day 15,[3],Diarrheal
same,Oocyst output (OPG ± SD) Day 15,[3],"147,000 ± 4300 OPG"
same,Weight gain (grams ± SD) Day 15,[3],812 ± 51 grams
same,IC50,"[1]; Plasmodium falciparum, Erythrocyte, 72 h, read-out: IC50 carvacrol alone, Clone 3d7",330 µM
same,IC50,"[1]; Plasmodium falciparum, Erythrocyte, 72 h, read-out: IC50 carvacrol alone, Clone 7G8",110 µM
same,IC50,"[1]; Plasmodium falciparum, Erythrocyte, 72 h, read-out: IC50 carvacrol alone, Clone Dd2",160 µM
same,IC50,"[1]; Plasmodium falciparum, Erythrocyte, 72 h, read-out: IC50 carvacrol alone, Clone HB3",220 µM
same,protection of treated animals (in words),[2]; carvacrol 40 mg/kg twice a day (80 mg/kg/24 h),does not afford any protection
same,% mortality,[2]; [5],100%
same,Survival time of animals that died,[2]; [5],7.5 days
same,% survivor at D12,[2]; [6],80%
same,Survival time of animals that died,[2]; [6],7.5 days
same,% mortality,"[2]; carvacrol 60 mg/kg twice a day (120 mg/kg/24 h), intraperitoneal, D5-D7 after infection",20%
C=CCc1ccc(O)c(OC)c1 [eugenol],IC50,"[1]; Plasmodium falciparum, Erythrocyte, 72 h, read-out: IC50 eugenol alone, Clone 3d7",1250 µM
same,IC50,"[1]; Plasmodium falciparum, Erythrocyte, 72 h, read-out: IC50 eugenol alone, Clone 7G8",400 µM
same,IC50,"[1]; Plasmodium falciparum, Erythrocyte, 72 h, read-out: IC50 eugenol alone, Clone Dd2",660 µM
same,IC50,"[1]; Plasmodium falciparum, Erythrocyte, 72 h, read-out: IC50 eugenol alone, Clone HB3",660 µM
"Cc1ccc(C(C)C)c(O)c1 [Thymol, thymol]",Consumption index Day 5,[3],2.45
same,Fecal appearance Day 5,[3],Diarrheal
same,Oocyst output (OPG ± SD) Day 5,[3],"98,000 ± 4200 OPG"
same,Weight gain (grams ± SD) Day 5,[3],180 ± 52 grams
same,Consumption index Day 15,[3],3.3
same,Fecal appearance Day 15,[3],Diarrheal
same,Oocyst output (OPG ± SD) Day 15,[3],"136,000 ± 6500 OPG"
same,Weight gain (grams ± SD) Day 15,[3],840 ± 45 grams
